These results are taken from patent US11839613B2, “Pyrimidine derivatives as PGE2 receptor modulators” (IDORSIA PHARMACEUTICALS LTD, priority 2017, dated 2023).

One may read the IC50 as the concentration at which inhibition is half-maximal.

Assay [1] concerns the target PTGER2 (EP2) (Homo sapiens (Human), UniProt P43116). Nature of the assay: hEP2 b-arrestin assay (PathHunter HEK 293 PTGER2 b-arrestin cells). The class given is cell-based. The following applies: antagonistic activity, beta-arrestin assay; read-out: hEP2 b-arr IC50. The protocol:
Plate is pre-incubated 15 minutes at 37° C. Then five microliters of PGE2 (final conc. 5 μM) are transferred into the assay plate. Plate is incubated 120 minutes at 37° C.
(each concentration is measured in duplicate)

The target of assay [2] is EP4 (Homo sapiens (Human), UniProt P35408). The experiment in a line: hEP4 cAMP assay (BT549 breast cancer cells, HTRF cAMP). It counts as cell-based. The following applies: antagonistic activity, PGE2 6 nM. A digest of the protocol:
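cAMP accumulation quantified by HTRF competition between cellular cAMP and d2-labeled cAMP for cryptate anti-cAMP antibody. Cells: endogenously EP4-expressing BT549, buffer with 2 mM IBMX; 45 min RT compound preincubation preceded 30 min RT challenge with PGE2 at 6 nM final.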
On the technique in general: Changes in cAMP serve as a functional read-out for many G protein-coupled receptors.

The target in assay [3] is EP2 (Homo sapiens (Human), UniProt P43116). Nature of the assay: hEP2 cAMP assay (SF295 glioblastoma cells, HTRF cAMP). The class given is cell-based. The following applies: antagonistic activity. The method in brief: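 PGE2-driven cAMP accumulation was measured by HTRF in SF295 cells, which express endogenous EP2 only. Cells in assay buffer with 2 mM IBMX were pre-incubated 45 min at RT, then incubated 30 min at RT. Detection used competition between cellular cAMP and d2-cAMP for a cryptate anti-cAMP antibody.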
EP2, sequence (P43116 whole entry): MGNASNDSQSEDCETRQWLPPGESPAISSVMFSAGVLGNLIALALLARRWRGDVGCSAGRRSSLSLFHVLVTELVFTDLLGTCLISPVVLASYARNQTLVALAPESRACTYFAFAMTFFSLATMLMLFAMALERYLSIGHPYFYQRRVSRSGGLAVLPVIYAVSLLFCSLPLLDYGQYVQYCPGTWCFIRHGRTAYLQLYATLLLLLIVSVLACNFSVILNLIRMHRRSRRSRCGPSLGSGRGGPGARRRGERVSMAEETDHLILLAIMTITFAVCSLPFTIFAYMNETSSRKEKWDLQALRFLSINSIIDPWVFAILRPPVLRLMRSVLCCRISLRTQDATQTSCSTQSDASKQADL

In assay [4] the target is PTGER4 (EP4) (Homo sapiens (Human), UniProt P35408).
PTGER4 (EP4), sequence (P35408 whole entry): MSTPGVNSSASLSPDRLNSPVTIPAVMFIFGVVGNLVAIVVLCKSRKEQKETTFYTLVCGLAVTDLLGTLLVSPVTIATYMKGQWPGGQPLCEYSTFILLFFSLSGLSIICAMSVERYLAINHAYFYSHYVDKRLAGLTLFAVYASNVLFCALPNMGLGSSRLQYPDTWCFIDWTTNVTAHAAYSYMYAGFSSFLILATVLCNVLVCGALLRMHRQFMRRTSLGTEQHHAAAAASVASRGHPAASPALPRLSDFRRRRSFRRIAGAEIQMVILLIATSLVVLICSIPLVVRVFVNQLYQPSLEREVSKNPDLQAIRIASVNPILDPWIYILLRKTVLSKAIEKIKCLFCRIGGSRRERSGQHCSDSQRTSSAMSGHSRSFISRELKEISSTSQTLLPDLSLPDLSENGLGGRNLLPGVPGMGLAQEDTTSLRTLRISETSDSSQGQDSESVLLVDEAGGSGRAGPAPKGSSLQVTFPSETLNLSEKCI

EP4, sequence (P35408 whole entry): as above
PTGER2 (EP2), sequence (P43116 whole entry): as the sequence (P43116 whole entry) above

In the case of `CCOc1cc(-c2cc(NCCc3ccc4ncccc4c3F)ncn2)sc1C(=O)O` [Ex 69], the IC50 in assay [1] was 438 nM; in assay [2], 38 nM; in assay [3] it was 222 nM; in assay [4], 59 nM.

In the case of `COc1cc2ccccc2c(F)c1CCNc1cc(-c2ccc(C(=O)O)c(SC)c2)ncn1` [Ex 29], the IC50 in assay [1] is 53 nM; in assay [2], 17 nM; in assay [3], 52 nM; in assay [4], 33 nM.

Regarding `CCOc1cc2ccccc2cc1CCNc1cc(-c2ccc(C(=O)O)c(OC3CCC3)c2)ncn1` [Ex 171], the half-inhibitory concentration (IC50) in assay [1] turned out to be 83 nM; in assay [2], 181 nM; in assay [3], 120 nM; in assay [4], 62 nM.

With `CSc1cc(-c2cc(NCCc3ccc4sccc4c3C)ncn2)ccc1CC(=O)O` [Ex 326], the IC50 in assay [1] stood at 126 nM; in assay [2], 910 nM; in assay [3], 160 nM; in assay [4] it was 1070 nM.

Regarding `CCOc1cc(-c2cc(NCCc3cc4ccsc4cc3C#N)ncn2)ccc1C(=O)O` [Ex 128], the IC50 in assay [1] is 151 nM; in assay [2] it was 103 nM; in assay [3] it was 76 nM; in assay [4], 192 nM.

Regarding `CCOc1cc(-c2cc(NCCc3ccc4sccc4c3C)ncn2)sc1C(=O)O` [Ex 20], the IC50 in assay [1] came out at 27 nM; in assay [2], 12 nM; in assay [3], 11 nM; in assay [4], 74 nM.

For the compound `COc1cc2c(cc1CCNc1cc(-c3ccc(CC(=O)O)c(SC)c3)ncn1)OCCO2` [Ex 197], the IC50 in assay [1] worked out at 127 nM; in assay [2] it was 224 nM; in assay [3], 176 nM; in assay [4], 300 nM.

On to `CCOc1cc(-c2cc(NCCc3cc4cccnc4c(C)c3Cl)ncn2)sc1C(=O)O` [Ex 87], for which the concentration for half-maximal inhibition (IC50) in assay [1] is 173 nM; in assay [2], 51 nM; in assay [3] it was 134 nM; in assay [4], 85 nM.

Take `CSc1cc(-c2cc(NCCc3cc4c(cc3C#N)OCCO4)ncn2)ccc1C(=O)O` [Ex 97]: the IC50 in assay [1] is 192 nM; in assay [2] it was 63 nM; in assay [3], 78 nM; in assay [4] it was 147 nM.

Take `CCOc1cc(-c2cc(NCCc3ccc4c(c3)COC4)ncn2)sc1C(=O)O` [Ex 164]: the IC50 was determined as 269 nM in assay [1], 163 nM in assay [2], 149 nM in assay [3] and 93 nM in assay [4].

As to `CCOc1cc(-c2cc(NCCc3cc4ccn(C)c4cc3F)ncn2)sc1C(=O)O` [Ex 16], the IC50 worked out at 8 nM in assay [2], 269 nM in assay [3] and 5 nM in assay [4].

Take `CCOc1cc(-c2cc(NCCc3cc4c(cc3OC)NCCC4)ncn2)sc1C(=O)O` [Ex 173]: the half-maximal inhibitory concentration (IC50) in assay [2] is 183 nM; in assay [3], 769 nM; in assay [4], 128 nM.

`CCOc1cc(-c2cc(NCCc3cc(F)c4ncccc4c3F)ncn2)sc1C(=O)O` [Ex 86]: the IC50 in assay [2] came out at 49 nM; in assay [3], 445 nM; in assay [4], 79 nM.

Regarding `CCOc1cc(-c2cc(NCCc3cc4ccccc4cc3Cl)ncn2)ccc1C(=O)O` [Ex 279], the IC50 in assay [2] came to 489 nM; in assay [3], 559 nM; in assay [4], 743 nM.

Turning to `CCOc1cc(-c2cc(NCCc3cc4ccccc4cc3OC(C)C)ncn2)sc1C(=O)O` [Ex 31], the values for the IC50 in assay [2], in assay [3] and in assay [4] were 18 nM, 7740 nM and 6 nM, respectively.

`CCOc1cc(-c2cc(NCCc3ccc4ccsc4c3)ncn2)ccc1OCC(=O)O` [Ex 144]: the results for the half-inhibitory concentration (IC50) in assay [2], in assay [3] and in assay [4] were 132 nM, 751 nM and 91 nM, respectively.

As for `CCOc1cc(-c2cc(NCCc3cc4c(cc3Cl)NCCO4)ncn2)sc1C(=O)O` [Ex 149], the results for the IC50 in assay [2], in assay [3] and in assay [4] were 144 nM, 619 nM and 194 nM, respectively.

As for `C#Cc1c(CCNc2cc(-c3ccc(C(=O)O)c(OCC)c3)ncn2)ccc2ccccc12` [Ex 141], the IC50 in assay [2] stood at 122 nM; in assay [3], 328 nM; in assay [4], 131 nM.

Consider “(4-{6-[2-(7-Ethynyl-2,3-dihydro-benzo[1,4]dioxin-6-yl)-ethylamino]-pyrimidin-4-yl}-2-propyl-phenyl)-acetic acid [Example 440]”, for which the IC50 in assay [2] (BT549 cells) worked out at 65 nM; in assay [3], 25 nM; in assay [4] it was 51 nM.

`CCOc1cc(-c2cc(NCCc3cc4cnccc4cc3F)ncn2)sc1C(=O)O` [Ex 106]: the IC50 in assay [2] is 74 nM; in assay [3], 831 nM; in assay [4], 135 nM.

With `C#Cc1c(CCNc2cc(-c3ccc(OCC(=O)O)c(OCC)c3)ncn2)ccc2ccccc12` [Ex 140], the 50% inhibitory concentration (IC50) in assay [2] is 121 nM; in assay [3], 459 nM; in assay [4], 95 nM.

Take `CCOc1cc(-c2cc(NCCc3cc4ccccc4cc3C#N)ncn2)ccc1C(=O)O` [Ex 92]: the values for the IC50 in assay [2], in assay [3] and in assay [4] were 57 nM, 1680 nM and 105 nM, respectively.

Turning to `CCOc1cc(-c2cc(NCCc3cc4ccccc4cc3C#N)ncn2)ccc1OCC(=O)O` [Ex 84], the IC50 came to 47 nM in assay [2], 1280 nM in assay [3] and 19 nM in assay [4].

Regarding `CCOc1cc(-c2cc(NCCc3cc4ccccc4cc3OC(C)C)ncn2)ccc1C(=O)O` [Ex 284], the IC50 in assay [2] was 509 nM; in assay [3], greater than 28100 nM; in assay [4] it was 125 nM.

With `CCOc1cc(-c2cc(NCCc3cc4ccccc4cc3OC(C)C)ncn2)ccc1OCC(=O)O` [Ex 89], the half-inhibitory concentration (IC50) in assay [2] stood at 54 nM; in assay [3] it was 19400 nM; in assay [4] it was 17 nM.

Regarding `CCOc1cc(-c2cc(NCCc3ccc4cccc(F)c4c3)ncn2)sc1C(=O)O` [Ex 66], the IC50 in assay [2] was found to be 35 nM; in assay [3], 1220 nM; in assay [4], 21 nM.

`CCOc1cc(-c2cc(NCCc3cc4cccnc4cc3F)ncn2)sc1C(=O)O` [Ex 98]: the IC50 in assay [2] was 64 nM; in assay [3] it was 314 nM; in assay [4], 33 nM.

With `CCOc1cc(-c2cc(NCCc3ccc4c(c3)CCS4)ncn2)ccc1C(=O)O` [Ex 255], the figures for the IC50 in assay [2], in assay [3] and in assay [4] were 380 nM, 272 nM and 788 nM, respectively.

In the case of `N#Cc1cc2c(cc1CCNc1cc(-c3ccc(C(=O)O)c(OC4CCC4)c3)ncn1)OCCO2` [Ex 113], the IC50 in assay [2] amounted to 82 nM; in assay [3], 251 nM; in assay [4], 179 nM.

In the case of `CCOc1cc(-c2cc(NCCc3cc4cccnc4cc3C)ncn2)sc1C(=O)O` [Ex 177], the IC50 in assay [2] amounted to 186 nM; in assay [3] it was 280 nM; in assay [4], 156 nM.

For `CCOc1cc(-c2cc(NCCc3ccc4ccccc4c3C)ncn2)ccc1OCCC(=O)O` [Ex 134], the IC50 in assay [2] worked out at 84 nM; in assay [3], 358 nM; in assay [4] it was 63 nM.

Consider `CCOc1cc(-c2cc(NCCc3ccc4ncsc4c3)ncn2)sc1C(=O)O` [Ex 91], for which the IC50 in assay [2] came out at 56 nM; in assay [3], 586 nM; in assay [4], 40 nM.

As for `CCOc1cc(-c2cc(NCCc3ccc4sccc4c3)ncn2)ccc1OCC(=O)O` [Ex 121], the IC50 in assay [2] was determined as 93 nM; in assay [3] it was 283 nM; in assay [4], 42 nM.

Regarding `C=Cc1c(CCNc2cc(-c3cc(OCC)c(C(=O)O)s3)ncn2)ccc2ccccc12` [Ex 75], the IC50 in assay [2] is 41 nM; in assay [3], 483 nM; in assay [4] it was 86 nM.
